Results from PMC5505983, “Naringenin Impairs Two-Pore Channel 2 Activity And Inhibits VEGF-Induced Angiogenesis” (Scientific Reports, 2017).

How the values were obtained:
hTPC1 = target: T1, hTPC1 (Homo sapiens, UniProt Q9ULQ1); assay: whole-vacuole patch clamp, current activation; type: biochemical; details: activator; 90 nM cytosolic side; diC8 form; pH 7.5 cytosolic, pH 5.5 vacuolar
T1 construct: gene TPCN1; full-length with C-terminal EGFP, plasmid pSAT-hTPC1-EGFP; transiently expressed in vacuoles of Arabidopsis thaliana tpc1-2 mutant mesophyll protoplasts; dimer

hTPC2 = target: T2, hTPC2 (Homo sapiens, UniProt Q8NHX9); assay: whole-vacuole patch clamp, dose-response of current inhibition; type: cell-based; details: read-out: apparent affinity constant
T2 construct: gene TPCN2; full-length with C-terminal EGFP, plasmid pSAT-hTPC2-EGFP; transiently expressed in vacuoles of Arabidopsis thaliana tpc1-2 mutant mesophyll protoplasts; dimer
T2 sequence (Q8NHX9 whole entry): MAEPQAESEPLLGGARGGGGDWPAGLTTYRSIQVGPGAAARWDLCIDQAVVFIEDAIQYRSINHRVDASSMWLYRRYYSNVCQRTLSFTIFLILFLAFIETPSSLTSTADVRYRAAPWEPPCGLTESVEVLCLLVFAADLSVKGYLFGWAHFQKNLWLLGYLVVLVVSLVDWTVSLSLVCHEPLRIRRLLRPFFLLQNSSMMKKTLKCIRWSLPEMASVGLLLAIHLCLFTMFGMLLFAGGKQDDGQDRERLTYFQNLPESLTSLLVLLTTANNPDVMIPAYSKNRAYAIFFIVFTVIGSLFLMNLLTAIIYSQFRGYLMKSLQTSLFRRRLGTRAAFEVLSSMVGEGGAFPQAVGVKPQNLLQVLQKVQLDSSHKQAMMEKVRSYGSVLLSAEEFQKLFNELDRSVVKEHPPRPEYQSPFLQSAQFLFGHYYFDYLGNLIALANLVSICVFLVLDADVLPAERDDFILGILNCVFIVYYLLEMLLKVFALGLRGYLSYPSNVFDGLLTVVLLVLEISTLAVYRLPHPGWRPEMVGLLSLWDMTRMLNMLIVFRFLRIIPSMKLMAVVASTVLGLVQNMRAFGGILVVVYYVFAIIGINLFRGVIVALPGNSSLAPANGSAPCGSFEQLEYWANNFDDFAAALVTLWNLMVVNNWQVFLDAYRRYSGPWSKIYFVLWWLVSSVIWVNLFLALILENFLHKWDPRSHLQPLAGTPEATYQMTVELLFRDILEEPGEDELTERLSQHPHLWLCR

SMILES | whole-vacuole patch clamp, current activation (hTPC1) | IC50 (hTPC2) [µM]
CCCCCCCC(=O)OC[C@H](COP(=O)(O)O[C@@H]1[C@H](O)[C@H](OP(=O)(O)O)[C@@H](O)[C@H](OP(=O)(O)O)[C@H]1O)OC(=O)CCCCCCC [PI(3,5)P2] | very small in comparison to those elicited by the addition of the phosphoinositide | –
O=C1C[C@@H](c2ccc(O)cc2)Oc2cc(O)cc(O)c21 [Nar, 5,7-dihydroxy-2-(4-hydroxyphenyl)chroman-4-one] | – | 180 ± 20
